The subject of data set [1] is male mice. Put plainly: Acute oral toxicity in mice (lethal ratio). It is filed as in vivo. The conditions noted are these: 400 mg/kg oral, two weeks, four mice per group. Here is the method:
Acute toxicity was determined two weeks after oral administration of 400 mg/kg to male mice. Four mice (denominator) are used in each group and the dead numbers are given as the numerator. The compounds of the present invention show little, if any, toxicity.
Lethal ratios for all other compounds are 0/4 at doses of […]. It is therefore apparent that they are all safe compounds.

Data set [2] concerns SRS-A (slow reacting substance of anaphylaxis). Put plainly: Anti-SRS-A action using isolated ileus of guinea pigs. Here is the method: Anti-SRS-As action (An anti-action against slow reacting substance of anaphylaxis).
Hartley strain male guinea pigs (300 to 350 grams body weight) are killed and 1.0 to 1.5 cm of ileus is immeidiately excised from ileocecal parts and is suspended in 10 ml of Tyrode solution (95% O2 -5% CO2 saturation) containing 10^-7 g/ml of atropine and 10^-6 g/ml of pyrilamine. SRS-A (20 units) (the amount of SRS-A showing the same shrinkage as 5 ng of histamine is defined as 1 unit) prepared by using sensitized guinea pig lung is given to cause shrinkage there. Then antagonistic action of test compounds treated five minutes ago against the shrinkage is measured and recorded via isotonic transducer.
Inhibition Ratio of Test Compd (%)=(1-A'/A)×100
in which A' is a height of shrinkage of SRS-A+test compound and A is that of SRS-A.

In data set [3] the test system is passive cutaneous anaphylaxis (DNP-As antigen) in Wister strain rats. The data set is described as follows: passive cutaneous anaphylaxis (PCA) assay in rats. The settings on record: 10 mg/kg oral, one hour before antigen; for inhibition in vivo at 10 mg/kg: Rattus norvegicus, po, 1 h, read-out: PCA Inhibition Ratio %. It is filed as in vivo. Here is the method: (i) Antiserum abundant in homocytotropic antibody is prepared by the same method as Tada and Okumura did (cf. Journal of Immunology, vol. 106, page 1002, 1976). Thus, 1 mg (calculated as an amount of protein) of DNP-As (2,4-dinitrophenyl-coupled ascaris extract) prepared by methods of Strejan and Campbell (Journal of Immunology, vol. 98, p. 893, 1971) and of Eisen (Journal of Amer. Chem. Soc., vol. 85, p 4593, 1953) and 1×10^10pertussis vaccine are administered to each paw of Wister strain rats (180 to 200 grams body weights) by dividing the dose by four. Five days later, 0.5 mg of DNP-As is administered into muscle of back. Eight days later from the initial immunization, blood is taken from descending aorta under anesthetizing with ether, the resulting serum is stored at -80° and is melted before use.
(ii) Effect of tested compounds is investigated as follows:
Anti-serum obtained by the method (i) is diluted with physiological saline solution double by double successively and 0.05 ml of each diluted solution is administered into back of Wister strain rats (140 to 160 grams body weight) subcutaneously. After 72 hours, a solution of 2 mg (calculated as protein) of DNP-As and 2.5 mg of Evans Blue dissolved in 1 ml of physiological saline solution is administered intraveously at a dose of 5 ml/kg. After 30 minutes from antigen solution administration, the animals are killed and diameters of blue spots appeared at the place where antiserum is administered are measured. The PCA test is conducted by the same method as already described using a diluted solutions of antiserum which always show 10 mm or more of spot diameters and the effect of the test compounds is judged. Thus antiserum diluted solutions are administered to two places in back. Test compounds are administered orally at the dose of 10 mg/kg one hour before administration of antigen solution. From the skin of reacted parts of killed animals, leaked or emitted dyestuff is extracted and the amount of the dyestuff is measured. The inhibition ratio is calculated by the following expression:
Inhibition Ratio=(1-A'/A)×100
in which A' is an amount of dyestuff in the group treated with the test compounds and A is that in the control group.

The subject of data set [4] is carrageenin edema in SD-strain rats. Put plainly: Carrageenin edema at hind foot of rats (anti-inflammatory action). It is filed as in vivo, rat. The settings on record: Rattus norvegicus, po, 3 h, 200 mg/kg per os one hour before carrageenin; 3 hours after; read-out: % Inhibition of carrageenin edema. Here is the method:
The anti-inflammatory action of the compounds of the present invention were evaluated by measuring the inhibition against carrageein edema as set forth below.
Carrageenin edema at hind foot of rats:
SD-strain rats of body weights of around 150 grams were used, each group consisting of five rats. A solution (0.1 ml) of 0.5% carrageenin dissolved in physiological saline water was hypodermically injected into right hind foot pat of the rats and, one hour prior to the injection of carrageenin, 200 mg/kg of test compound was given per os. Foot volumes of the rats before the carrageenin treatment and those of three hours after the treatment were measured and the differences were compared with those of the control group to determine the effect of the compounds.

In data set [5] the test system is allergic asthma. The conditions noted are these: cited from earlier work.
The mark [6] stands for this setting: 10^-6 M; guinea pig ileus, SRS-A 20 units; 5 min, 1 µM.

For `Cc1cccc2c(O)c(C(=O)c3ccccc3)c(=O)[nH]c12` [Example 19, 3-benzoyl-4-hydroxy-8-methyl-2-quinolone], in data set [1], the “Lethal Ratio (dead/treated)” value is reported as 0/4. The “SRS-A Inhibition Ratio %” value in data set [2] (setting [6]) is given as 19.0%. The inhibition in vivo at 10 mg/kg in data set [3] was determined as 29.6%. Besides, the inhibition in vivo at 200 mg/kg in data set [4] came out at 70%.

With `O=C(c1ccccc1)c1c(O)c2ccc([N+](=O)[O-])cc2[nH]c1=O` [Example 10, 3-benzoyl-4-hydroxy-7-nitro-2-quinolone], in data set [1], the “Lethal Ratio (dead/treated)” value was 0/4. Also, the “SRS-A Inhibition Ratio %” value in data set [2] (setting [6]) was 22.3%. Also, in data set [3], the inhibition in vivo at 10 mg/kg was 33.4%.

Turning to `COC(=O)c1cccc2c(O)c(C(=O)c3ccccc3)c(=O)[nH]c12` [Example 13], the “Lethal Ratio (dead/treated)” value in data set [1] was 1/4. Besides, the “SRS-A Inhibition Ratio %” value in data set [2] (setting [6]) worked out at 19.8%. Further, the inhibition in vivo at 10 mg/kg in data set [3] was determined as 25.7%.

On to `CCCCCCc1ccc2[nH]c(=O)c(C(=O)c3ccccc3)c(O)c2c1` [Example 23, 3-benzoyl-6-n-hexyl-4-hydroxy-2-quinolone], for which the “Lethal Ratio (dead/treated)” value in data set [1] is 0/4. In addition, the “SRS-A Inhibition Ratio %” value in data set [2] (10^-6 M, guinea pig ileus, SRS-A 20 units, 5 min, 1 µM) is recorded as 83.3%. In data set [2] (10^-7 M; guinea pig ileus, SRS-A 20 units; 5 min, 0.1 µM), the “SRS-A Inhibition Ratio % (value in parentheses)” value was 32.8%. Also, the “PCA Inhibition Ratio %” value in data set [3] (rat, 10 mg/kg) worked out at 13.1%. For the same molecule, in data set [4], the inhibition in vivo at 200 mg/kg came out at 15.9%.

As for `O=C(c1ccccc1Cl)c1c(O)c2ccccc2[nH]c1=O` [Example 35, 3-(2-chlorobenzoyl)-4-hydroxy-2-quinolone], in data set [1], the “Lethal Ratio (dead/treated)” value is 0/4. Further, in data set [2] (setting [6]), the “SRS-A Inhibition Ratio %” value is 32.6%. For the same molecule, in data set [3], the inhibition in vivo at 10 mg/kg amounted to 45.6%.

For `O=C(c1ccc([N+](=O)[O-])cc1)c1c(O)c2ccccc2[nH]c1=O` [Example 47, 4-hydroxy-3-(4-nitrobenzoyl)-2-quinolone], the “Lethal Ratio (dead/treated)” value in data set [1] is listed as 0/4. The “SRS-A Inhibition Ratio %” value in data set [2] (setting [6]) came to 22.0%. The inhibition in vivo at 10 mg/kg in data set [3] is 49.4%.

With `O=C(c1ccccc1)c1c(O)c2cccc(C(=O)O)c2[nH]c1=O` [Example 16, 3-benzoyl-4-hydroxy-2-quinolone-8-carboxylic acid], the “Lethal Ratio (dead/treated)” value in data set [1] is on record as 0/4. Also, the “SRS-A Inhibition Ratio %” value in data set [2] (setting [6]) was 22.4%. For the same molecule, in data set [3], the inhibition in vivo at 10 mg/kg is 30.9%.

On to `O=C(O)c1cc(=O)c2c(OCC(O)COc3cccc4oc(C(=O)O)cc(=O)c34)cccc2o1` [Sodium chromoglicate], for which, in data set [5] (in vivo), the “duration of action (in words)” value is on record as “rather short” and the “effect on allergic asthma (in words)” value is given as “effective for allergic asthma”. In addition, the “effect on oral administration (in words)” value in data set [5] (oral administration) is “does not show any effect on oral administration”.

Source of the values: US4526894A, “Pharmaceutically active 4-hydroxy-3-benzoyl-2-quinolone derivatives” (Nippon Shinyaku Co. Ltd., priority 1982, dated 1985).
